Active and inactive are the calls of the source. Cut-off read from the data, not from the text of the source, for most assays here: actives have a measured EC50 and inactives only a lower limit.
How the values were obtained:
HeLa = assay: HeLa cell cytotoxicity, dose response, cytotoxicity control for MITF activator project, CellTiter-Glo luminescence, cherry-pick samples (AID 540259); assay type: functional, cell-based; conditions: Homo sapiens
[1] = target: 5-hydroxytryptamine receptor 5A (Homo sapiens, UniProt P47898); assay: Counterscreen for agonists of OPRM1-OPRD1 heterodimerization: luminescence-based cell-based high throughput dose response assay to identify agonists of 5-hydroxytryptamine (serotonin) 5A receptor (HTR5A). [Related pubchem assays (depositor defined):AID504326, AID504355, AID504692, AID504904, AID504905]; assay type: functional
[2] = target: Delta-type opioid receptor (Homo sapiens, UniProt P41143); assay: Counterscreen for agonists of heterodimerization of the mu 1 (OPRM1) and delta 1 (OPRD1) opioid receptors: Luminescence-based cell-based high throughput dose response assay to identify agonists of OPRD1 homodimerization. [Related pubchem assays (depositor defined):AID504326, AID504355, AID504692, AID504904, AID504905]; assay type: functional
Vero [3] = assay: cells; assay type: functional; conditions: Chlorocebus sabaeus
Vero [4] = assay: cells; assay type: functional, cell-based; conditions: Chlorocebus sabaeus
[5] = target: Opioid receptors; mu & delta (Homo sapiens, UniProt P41143+P35372); assay: agonists of MOR-DOR heterodimerization, dose response, cell-based, luminescence (AID 588407); assay type: functional
Mu-type opioid receptor = Mu-type opioid receptor (Homo sapiens, UniProt P35372); assay: Counterscreen for agonists of heterodimerization of the mu 1 (OPRM1) and delta 1 (OPRD1) opioid receptors: Luminescence-based cell-based high throughput dose response assay to identify agonists of OPRM1 homodimerization.; assay type: functional;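 note: U2OS cells expressing OPRM1 and beta-arrestin as split beta-galactosidase partners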
[6] = target: T1, Serine/threonine-protein phosphatase (Candida dubliniensis (strain CD36 / CBS 7987 / NCPF 3949 / NRRLY-17841) (Yeast), UniProt B9W6M3); assay: Fluorescence Cell-Based Secondary Assay to Identify Inhibitors of Calcineurin. [Related pubchem assays (depositor defined):AID1979, AID2007]; assay type: functional
T1 sequence (B9W6M3 whole entry): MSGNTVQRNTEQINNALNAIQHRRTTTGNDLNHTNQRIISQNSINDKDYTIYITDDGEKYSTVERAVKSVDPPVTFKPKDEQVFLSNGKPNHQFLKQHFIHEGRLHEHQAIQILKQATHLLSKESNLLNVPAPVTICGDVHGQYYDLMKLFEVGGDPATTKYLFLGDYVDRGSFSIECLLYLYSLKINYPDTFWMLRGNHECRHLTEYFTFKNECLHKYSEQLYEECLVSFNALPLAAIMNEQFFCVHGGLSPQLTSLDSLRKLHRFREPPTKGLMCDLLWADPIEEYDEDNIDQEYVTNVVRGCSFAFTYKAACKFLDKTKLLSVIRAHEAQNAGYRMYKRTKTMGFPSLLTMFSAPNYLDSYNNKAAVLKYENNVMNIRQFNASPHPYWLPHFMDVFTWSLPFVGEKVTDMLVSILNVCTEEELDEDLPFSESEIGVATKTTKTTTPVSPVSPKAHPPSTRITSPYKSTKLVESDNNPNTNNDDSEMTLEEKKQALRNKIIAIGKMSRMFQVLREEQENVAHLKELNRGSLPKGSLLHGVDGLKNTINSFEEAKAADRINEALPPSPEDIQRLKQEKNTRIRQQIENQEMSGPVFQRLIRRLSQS

Streptokinase A = target: T2, Streptokinase A (Streptococcus pyogenes serotype M1, UniProt P10520); assay: S. pyogenes streptokinase expression inhibitors, potency, dose response, plasminogen activation absorbance, OD405 (AID 1914); assay type: functional, Streptococcus pyogenes M1 GAS;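 note: secreted streptokinase activity via plasminogen activation per viability signal from cell pellet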
T2 sequence (P10520 whole entry): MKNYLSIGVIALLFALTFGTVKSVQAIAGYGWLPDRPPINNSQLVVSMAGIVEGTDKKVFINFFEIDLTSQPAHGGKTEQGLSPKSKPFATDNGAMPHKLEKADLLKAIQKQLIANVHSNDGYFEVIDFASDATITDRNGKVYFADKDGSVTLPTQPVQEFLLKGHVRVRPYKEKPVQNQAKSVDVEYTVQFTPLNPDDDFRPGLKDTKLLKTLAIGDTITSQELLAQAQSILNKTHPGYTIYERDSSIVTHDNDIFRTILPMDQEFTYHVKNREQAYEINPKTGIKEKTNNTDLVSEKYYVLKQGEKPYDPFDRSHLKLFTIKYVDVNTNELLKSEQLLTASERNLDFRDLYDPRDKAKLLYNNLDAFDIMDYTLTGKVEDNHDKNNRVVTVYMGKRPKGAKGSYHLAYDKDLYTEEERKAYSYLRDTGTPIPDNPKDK

[7] = target: T3, Heat shock factor protein 1 (Mus musculus, UniProt P38532); assay: HSF1 potentiators in luciferase reporter cells, confirmation, cell-based, NIH3T3, luminescence, dose retest (AID 435004); assay type: functional;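 note: stress induced by proteasome inhibitor MG132 added 30 min after compound; luciferase reporter driven by HSF1 response element in NIH3T3 cells; actives raise luminescence as potentiators of the MG132 stress response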
T3 sequence (P38532 whole entry): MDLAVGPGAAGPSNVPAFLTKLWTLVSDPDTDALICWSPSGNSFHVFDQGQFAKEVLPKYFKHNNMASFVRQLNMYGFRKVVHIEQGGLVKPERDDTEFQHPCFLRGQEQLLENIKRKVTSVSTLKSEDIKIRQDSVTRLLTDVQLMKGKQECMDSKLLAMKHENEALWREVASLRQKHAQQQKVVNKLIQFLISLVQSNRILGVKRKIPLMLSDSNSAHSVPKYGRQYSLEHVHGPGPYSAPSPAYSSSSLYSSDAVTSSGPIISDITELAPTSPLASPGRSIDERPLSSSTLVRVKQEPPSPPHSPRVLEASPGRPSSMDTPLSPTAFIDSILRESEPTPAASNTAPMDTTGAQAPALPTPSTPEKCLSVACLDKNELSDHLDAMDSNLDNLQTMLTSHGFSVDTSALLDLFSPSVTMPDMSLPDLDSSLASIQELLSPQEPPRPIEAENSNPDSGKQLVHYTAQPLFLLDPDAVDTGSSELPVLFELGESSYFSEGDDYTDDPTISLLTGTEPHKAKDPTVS

BJ [8] = assay: cytotoxicity toward BJ-TERT-LT-ST fibroblasts, dose response, cell-based, RAS-independent, luminescence (AID 1935); assay type: functional; conditions: Homo sapiens;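 note: BJ fibroblasts immortalized with TERT plus LT and ST oncogenes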
[9] = inhibitors of intracellular T. cruzi replication, confirmation, NIH3T3 host cells, beta-gal luminescence (AID 2044); assay type: functional, cell-based;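 note: intracellular parasites grown in NIH/3T3 mouse fibroblasts as host cells; luminescent beta-galactosidase reporter signal from transgenic T. cruzi replicating inside host cells; inhibitors lower the luminescence signal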
[10] = target: T1, Serine/threonine-protein phosphatase; assay: calcineurin pathway inhibitors in yeast reporter, dose response, S. cerevisiae, CDRE-lacZ, luminescence, secondary (AID 2388); assay type: functional, cell-based;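 note: yeast reporter cells carrying a calcineurin-responsive lacZ construct stimulated with calcium chloride; luminescent beta-galactosidase reporter signal in whole cells rather than isolated phosphatase activity; potency for inhibition where a drop in reporter signal means calcineurin blockade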
[11] = test system: Streptococcus sp. 'group A'; assay: growth inhibition of control SK(-) GAS strain, dose response, counter-screen for streptokinase expression inhibitor project, luminescence, kanamycin, BacTiterGlo, confirmation (AID 1900); assay type: functional, organism-based
[12] = cytotoxicity toward DRD oncogenic fibroblasts, dose response, cell-based, non-viral oncogenic, luminescence (AID 1934); assay type: functional; conditions: Homo sapiens
Streptococcus = assay: Group A Streptococcus viability loss, dose response, counter-screen for streptokinase expression inhibitor project, luminescence, BacTiterGlo (AID 1915); assay type: functional, organism-based;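 note: potency for reduction of bacterial viability or growth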
BJ [13] = assay: cells; assay type: functional, cell-based; conditions: Homo sapiens
[14] = C. albicans growth with fluconazole, confirmation, fluorescence, retest (AID 2467); assay type: functional, cell-based
[15] = target: Heat shock protein HSP 90-alpha (Homo sapiens, UniProt P07900); assay type: functional, organism-based
[16] = NIH-3T3 fibroblast cytotoxicity, dose response, cytotoxicity control, cell-based, fluorescence, Alamar Blue, secondary assay (AID 2327); assay type: functional;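 note: NIH-3T3 mouse fibroblasts cultured with fluconazole at 8 µg/mL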
NS3 = NS3 (Hepatitis C virus, UniProt A3EZJ3); assay: PubChem AID 2173; parameters: species or system Hepacivirus hominis
[17] = target: ATP-dependent molecular chaperone HSP82 (Candida albicans (strain WO-1) (Yeast), UniProt C4YTQ8); assay: loss of DOC-induced GRE-beta-galactosidase reporter signal, dose response, Hsp90 inhibitor project, S. cerevisiae, luminescence (AID 2400); assay type: functional, cell-based;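 note: beta-galactosidase luminescence from glucocorticoid response element reporter as proxy for Hsp90 function; inhibitor potency where signal loss means Hsp90 inhibition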
[18] = cytotoxicity toward NIH3T3 fibroblasts, dose response, counter-screen, cell-based, ATP luminescence, mouse fibroblasts (AID 2010); assay type: functional;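 note: cells exposed to compound for about 90 hours before reading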
BJ [19] = assay: cytotoxicity toward BJ-TERT fibroblasts, dose response, cell-based, RAS-independent, luminescence (AID 1933); assay type: functional; conditions: Homo sapiens

Chain of ATP-dependent molecular chaperone HSP82 (C4YTQ8 whole entry): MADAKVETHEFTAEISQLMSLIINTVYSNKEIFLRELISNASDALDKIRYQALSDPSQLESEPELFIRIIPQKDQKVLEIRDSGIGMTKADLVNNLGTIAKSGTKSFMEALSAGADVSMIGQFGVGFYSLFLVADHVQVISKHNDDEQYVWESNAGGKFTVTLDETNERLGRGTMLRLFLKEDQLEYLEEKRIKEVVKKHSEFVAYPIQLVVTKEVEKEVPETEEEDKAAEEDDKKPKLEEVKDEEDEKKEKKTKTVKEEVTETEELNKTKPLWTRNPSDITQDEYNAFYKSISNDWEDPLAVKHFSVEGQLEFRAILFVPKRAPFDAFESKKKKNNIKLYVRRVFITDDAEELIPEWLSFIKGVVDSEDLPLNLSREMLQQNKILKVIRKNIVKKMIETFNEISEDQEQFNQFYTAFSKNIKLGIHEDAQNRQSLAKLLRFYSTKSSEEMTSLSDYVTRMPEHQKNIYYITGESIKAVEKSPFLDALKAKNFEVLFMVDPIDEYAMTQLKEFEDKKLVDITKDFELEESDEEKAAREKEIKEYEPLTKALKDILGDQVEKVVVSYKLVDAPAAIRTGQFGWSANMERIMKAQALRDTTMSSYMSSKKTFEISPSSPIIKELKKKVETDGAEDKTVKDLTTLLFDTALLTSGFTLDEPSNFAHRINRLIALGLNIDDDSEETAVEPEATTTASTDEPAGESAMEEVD
Chain of Mu-type opioid receptor (P35372 whole entry): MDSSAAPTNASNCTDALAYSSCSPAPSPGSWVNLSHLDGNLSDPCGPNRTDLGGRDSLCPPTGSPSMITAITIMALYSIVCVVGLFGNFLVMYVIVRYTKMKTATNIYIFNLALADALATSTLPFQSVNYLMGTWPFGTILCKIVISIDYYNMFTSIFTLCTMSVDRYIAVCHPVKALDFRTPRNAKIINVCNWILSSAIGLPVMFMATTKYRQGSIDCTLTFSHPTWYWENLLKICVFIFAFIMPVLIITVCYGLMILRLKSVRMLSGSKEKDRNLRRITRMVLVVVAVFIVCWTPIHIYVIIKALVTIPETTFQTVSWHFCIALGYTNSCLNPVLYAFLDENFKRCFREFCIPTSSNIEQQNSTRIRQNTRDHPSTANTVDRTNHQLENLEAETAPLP
Chain of 5-hydroxytryptamine receptor 5A (P47898 whole entry): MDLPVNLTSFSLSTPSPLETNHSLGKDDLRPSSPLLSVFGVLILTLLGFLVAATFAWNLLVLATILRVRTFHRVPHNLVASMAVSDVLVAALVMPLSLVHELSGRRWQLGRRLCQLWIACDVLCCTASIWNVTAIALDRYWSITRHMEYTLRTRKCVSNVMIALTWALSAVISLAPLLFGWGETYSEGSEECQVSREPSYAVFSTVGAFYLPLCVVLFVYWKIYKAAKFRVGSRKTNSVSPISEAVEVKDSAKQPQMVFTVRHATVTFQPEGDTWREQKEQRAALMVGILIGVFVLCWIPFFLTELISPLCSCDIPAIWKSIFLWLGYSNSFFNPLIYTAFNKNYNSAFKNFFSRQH
Chain of NS3 (A3EZJ3 whole entry): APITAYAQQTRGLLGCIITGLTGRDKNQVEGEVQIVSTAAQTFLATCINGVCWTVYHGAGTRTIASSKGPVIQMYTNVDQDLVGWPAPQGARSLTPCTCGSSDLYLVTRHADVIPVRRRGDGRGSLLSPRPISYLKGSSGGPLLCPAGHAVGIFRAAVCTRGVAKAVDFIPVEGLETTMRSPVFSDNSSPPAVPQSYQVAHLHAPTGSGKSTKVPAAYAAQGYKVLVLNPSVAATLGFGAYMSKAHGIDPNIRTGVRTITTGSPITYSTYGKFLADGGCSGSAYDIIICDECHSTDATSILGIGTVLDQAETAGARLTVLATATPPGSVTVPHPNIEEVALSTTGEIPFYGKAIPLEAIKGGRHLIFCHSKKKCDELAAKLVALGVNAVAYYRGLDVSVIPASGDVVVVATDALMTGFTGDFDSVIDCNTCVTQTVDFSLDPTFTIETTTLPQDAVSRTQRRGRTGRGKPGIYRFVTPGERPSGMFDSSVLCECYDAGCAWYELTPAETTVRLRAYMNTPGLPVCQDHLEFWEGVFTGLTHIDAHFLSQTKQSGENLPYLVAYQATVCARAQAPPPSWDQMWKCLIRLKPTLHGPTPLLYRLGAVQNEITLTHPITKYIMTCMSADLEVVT
Chain of Delta-type opioid receptor (P41143 whole entry): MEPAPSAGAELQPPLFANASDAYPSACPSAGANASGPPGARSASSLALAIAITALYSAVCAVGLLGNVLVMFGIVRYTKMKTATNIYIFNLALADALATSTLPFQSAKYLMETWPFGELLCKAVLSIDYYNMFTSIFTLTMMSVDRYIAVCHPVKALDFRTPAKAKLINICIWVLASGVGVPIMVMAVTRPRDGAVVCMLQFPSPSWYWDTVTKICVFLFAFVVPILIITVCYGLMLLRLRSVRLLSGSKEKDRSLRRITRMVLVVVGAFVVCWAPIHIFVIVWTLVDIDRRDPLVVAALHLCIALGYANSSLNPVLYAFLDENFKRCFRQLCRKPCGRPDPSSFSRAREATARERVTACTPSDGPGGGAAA

In the case of `COc1ccc(C(S)=Nc2ccc(C)cc2)cc1`, the AC50 (HeLa) is reported as 194 µM (active).
With `CO[C@H]1[C@H](O)[C@H](O[C@H]2CC[C@@]3(C=O)[C@H](CC[C@@H]4[C@@H]3CC[C@]3(C)[C@@H](C5=CC(=O)OC5)CC[C@]43O)C2)O[C@@H](C)[C@@H]1O` [PERUVOSIDE] the EC50 [1] was > 92.5 µM (inactive), the EC50 [2] was > 92.5 µM (inactive) and the CC50 (Vero [3]) was < 0.05 µM (active). For the same compound, the IC50 (Vero [4]) was < 0.05 µM (active), the EC50 [5] was > 0.1268 µM and the EC50 (Mu-type opioid receptor) was > 92.5 µM (inactive).
With `Cc1ccc(/C=C/C(=O)c2ccccc(=O)c2O)cc1C` the EC50 [6] was 12.9 µM (active), the EC50 (Streptokinase A) was > 150 µM (not active) and the EC50 [7] was 40 µM (active). The EC50 (BJ [8]) was > 150 µM (not active), the EC50 [9] was 1.83 µM (active) and the EC50 [10] was 5.55 µM (active). The EC50 [11] was 5.05 µM (active), the EC50 [12] was 77.7 µM (active) and the EC50 (Streptococcus) was 11.5 µM (active). For the same compound, the EC50 (BJ [13]) was 24.9 µM (active), the EC50 [14] was 0.851 µM (active) and the AC50 [15] was 4.22 µM (active). The EC50 [16] was > 160 µM (inconclusive), the IC50 (NS3) was 2.63 µM (active) and the EC50 [17] was 2.09 µM (active). For the same compound, the EC50 [18] was 17.5 µM (active) and the EC50 (BJ [19]) was 23.7 µM (active).

From ChEMBL document CHEMBL1201862, “PubChem BioAssay data set” (2004)
